Several values for one entry are separate records, joined by “and”; a condition that tells them apart may be missing. Equal entries are not always repeated. Where two headings read alike, the source gives them in different places.
Tests used:
[1] = tested on: fowl roundworm (As. galli); assay: Anthelmintic test in chickens artificially infected with fowl roundworm, compound added to feed, E.P.G. and worm count up to 21st day (Test Examples A2, B2, C2, D2); assay type: in vivo, Ascaridia galli; details: Ascaridia galli, 504 h, read-out: Anthelmintic effect
[2] = tested on: canine whipworm (Trichuris vulpis); assay: Anthelmintic test in naturally infected dogs with mixed infections, E.P.G. on 7th day: canine whipworm (Test Examples A3, B3, C3, D3); assay type: in vivo
Description: (§1) Three dogs with mixed infections by canine whipworm (Trichuris vulpis), canine hookworm (Ancylostoma caninum) and canine roundworm (Toxocara canis) (naturally infected dogs) were employed in a group of two and a group of one.
(§2) The compound provided for the test was Compound No.Al, and 20 mg/Kg thereof was placed in a gelatin capsule per 1 Kg of body weight, and administered orally to the two dogs. As control, only a gelatin capsule was administered orally to the one dog.
(§3) Before administration and on the 7th day after administration, fecal matter testing was conducted to calculate the E.P.G., and the anthelmintic effect was judged by the changing of the E.P.G. to negative.
(§4) As control, only gelatin capsules were administered orally to the one dog.
(§5) The same method as in Test Example A3, but the compound provided for the test was Compound No. Cl. 30 mg/Kg of this compound was placed in a gelatin capsule per 1 Kg of body weight and administered orally to the two dogs. As control, only gelatin capsules were administered orally to the one dog.

[3] = tested on: canine hookworm (Ancylostoma caninum); assay: Anthelmintic test in naturally infected dogs with mixed infections, E.P.G. on 7th day: canine hookworm (Test Examples A3, B3, C3, D3); assay type: in vivo; details: dogs, 20 mg/Kg orally once, one value per dog
Description: as §1, §2, §3, §4, §5

[4] = tested on: canine roundworm (Toxocara canis); assay: Anthelmintic test in naturally infected dogs with mixed infections, E.P.G. on 7th day: canine roundworm (Test Examples A3, B3, C3, D3); assay type: in vivo; details: dogs, 20 mg/Kg orally once, one value per dog
Description: as §1, §2, §3, §4, §5

[5] = tested on: canine strongyloides (Strongyloides stercoralis); assay: Anthelmintic test against canine strongyloides in naturally infected dogs, E.P.G. on 7th day (Test Examples A4, B4, C4, D4); assay type: in vivo
Description: Three dogs infected with canine strongyloides (naturally infected dogs) were employed by grouping them into a group of two and a group of one.
As control, only a gelatin capsule was administered orally to the one dog.
as §3, §4, §4

[6] = tested on: Trichostrongylidae (Trichostrongylus colubriformis); assay: Anthelmintic test against sheep Trichostrongylidae in naturally infected sheep, E.P.G. on 7th day (Test Examples A7, B7, C7, D7); assay type: in vivo; details: for anthelmintic effect: one administration of 15 mg/Kg
Description: Two sheep infected with Trichostrongylidae (naturally infected sheep) were employed.
The compound provided for the test was Compound No. Al, 15 mg of which was placed in a gelatin capsule per 1 Kg of body weight and administered orally to one of the sheep. As a control, only gelatin capsules were administered orally to the other sheep.
as §3
As control, only gelatin capsules were administered orally to the other sheep.
As control, only gelatin capsule was administered orally to the other sheep.

[7] = tested on: swine roundworm (Ascaris suum); assay: Test of anthelmintic effect in naturally infected pigs, E.P.G. on 7th day: swine roundworm (Test Examples A9, B9, C9, D9); assay type: in vivo
Description: (§6) Six pigs infected with swine roundworm and swine whipworm (naturally infected pigs) were employed in groups each of two pigs.
(§7) As a control, only gelatin capsules were administered orally to the two pigs.
(§8) Before administration and on the 7th day after. administration, fecal matter testing was conducted to calculate the E.P.G., and the anthelmintic effect was judged by the changing of the E.P.G. to negative'.
(§9) 50 mg of each compound was placed in a gelatin capsule per 1 Kg of body weight and administered orally to each of the two pigs. As control, only gelatin capsules were administered orally to two pigs.
(§10) 30 mg of each compound was placed in a gelatin capsule per 1 Kg of body weight and administered orally to each of the two pigs. As control, only gelatin capsules were administered orally to two pigs.

[8] = tested on: swine whipworm (Trichuris suis); assay: Test of anthelmintic effect in naturally infected pigs, E.P.G. on 7th day: swine whipworm (Test Examples A9, B9, C9, D9); assay type: in vivo; details: pigs, 20 mg/Kg orally once, one value per pig
Description: as §6, §7, §8, §9, §10

[9] = tested on: canine filaria; Dirofilaria immitis; assay: Test of anthelmintic effect against canine filaria in naturally infected dogs, subcutaneous injection, microfilaria in blood and adult filaria at autopsy (Test Examples A10, B10, C10, D10); assay type: in vivo
[10] = tested on: Liver fluke; Fasciola hepatica (F. hepatica); assay: Test of anthelmintic effect against rat infected experimentally with liver fluke (Test Examples A11, B11, C11, D11); assay type: in vivo; set-up: key to Presence or absence of fluke egg in fecal matter On 21st day after the last administration: +: indicates detection of fluke egg; -: indicates no detection
[11] = tested on: fowl roundworm (Ascaridia galli); assay: Anthelmintic test in chickens artificially infected with fowl roundworm, single oral dose in gelatin capsule, worm bodies counted within 48 hours (Test Examples A1, B1, C1, D1); assay type: in vivo; details: Ascaridia galli, po, 48 h, read-out: Anthelmintic effect after 48 hours
How it was run: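 Groups of three chickens with confirmed Ascaridia galli infection given a single oral dose in gelatin capsule (10 and 20 mg/kg in A1 and B1; 30 and 50 mg/kg in C1; 15 and 30 mg/kg in D1). Worms expelled over 48 h and those remaining in the gut at necropsy counted to give anthelmintic percentage.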

[12] = tested on: Trichostrongylidae (Trichostrongylus colubriformis); assay: Anthelmintic test against sheep Trichostrongylidae in naturally infected sheep, E.P.G. on 7th day (Test Examples A7, B7, C7, D7); assay type: in vivo
[13] = dogs, 20 mg/Kg x 3 subcutaneously, autopsy on 10th day after the last administration, one value per dog, 20 mg/kg

C#CCN(OC)C(C)=O [Compound A1, N-propargyl-N-acetyl-O-methylhydroxylamine]
inhibition in vivo at 10 ppm ([1]; po, chickens, 10 ppm added to feed, worm count on 21st day, one value per chicken): 80 to 90%
inhibition in vivo at 50 ppm ([1]; po, chickens, 50 ppm added to feed, worm count on 21st day, one value per chicken): 100%
anthelmintic effect ([2]; dogs with mixed infections (Trichuris vulpis, Ancylostoma caninum, Toxocara canis; statement covers all three), one administration of 20 mg/Kg): marked anthelmintic effect
Change of E.P.G. Before administration ([2]; dogs, 20 mg/Kg orally once, Trichuris vulpis, baseline, one value per dog, 20 mg/kg): 3,200 E.P.G. and 2,700 E.P.G.
Change of E.P.G. 7th day ([2]; dogs, 20 mg/Kg orally once, Trichuris vulpis, one value per dog): 0 E.P.G.
Change of E.P.G. Before administration ([3]; baseline, 20 mg/kg): 4,500 E.P.G. and 7,800 E.P.G.
Change of E.P.G. 7th day [3]: 0 E.P.G.
Change of E.P.G. Before administration ([4]; baseline, 20 mg/kg): 5,100 E.P.G. and 2,300 E.P.G.
Change of E.P.G. 7th day [4]: 0 E.P.G.
anthelmintic effect ([5]; dogs, one administration of 10 mg/Kg): marked anthelmintic effect
anthelmintic effect ([5]; dogs, one administration of 20 mg/Kg): marked anthelmintic effect
Change of E.P.G. 7th day ([6]; 15 mg/Kg orally once): 0 E.P.G.
Change of E.P.G. Before administration ([6]; 15 mg/Kg orally once, baseline): 1,600 E.P.G.
anthelmintic effect [6]: marked anthelmintic effect
anthelmintic effect ([7]; pigs infected with swine roundworm and swine whipworm (statement covers both), one administration of 20 mg/Kg): marked anthelmintic effect
Change of E.P.G. 7th day ([7]; pigs, 20 mg/Kg orally once, Ascaris suum, one value per pig): 0 E.P.G.
Change of E.P.G. Before administration ([8]; baseline, 20 mg/kg): 1,300 E.P.G. and 2,100 E.P.G.
Change of E.P.G. 7th day [8]: 0 E.P.G.
inhibition in vivo at 20 mg/kg ([9]; Dirofilaria immitis, sc, 240 h, dogs, administration of 20 mg/Kg repeated three times, given as about 50% or more, read-out: anthelmintic effect against adult filaria): ≥ 50%
Effect on adult filaria: Number of worms killed/Total parasites [9, 13]: 7/12 and 5/ 7
Effect on adult filaria: Percent of worms killed [9, 13]: 58% and 71%
Number of microfilaria/20 µl On 10th day after the last administration ([9]; dogs, 20 mg/Kg x 3 subcutaneously, earlobe blood, one value per dog): 0 /20 µl
anthelmintic effect against microfilaria (mf) ([9]; dogs, administration of 20 mg/Kg repeated three times): marked anthelmintic effect
Condition of fluke body ([10]; rats, 50 mg/Kg x 5 orally, autopsy, liver, "Denatured" = fluke body is alive but a part of fluke body has changed, one value per rat): dead
Presence or absence of fluke egg in fecal matter On 21st day after the last administration ([10]; rats, 50 mg/Kg x 5 orally, one value per rat): -

C=CCN(OCC)C(C)=O [Compound B8, N-allyl-N-acetyl-O-ethylhydroxylamine]
inhibition in vivo at 30 mg/kg ([11]; chickens, 30 mg/Kg orally in gelatin capsule, one value per chicken (No.1-3)): 100%
inhibition in vivo at 50 mg/kg ([11]; chickens, 50 mg/Kg orally in gelatin capsule, one value per chicken (No.1-3)): 100%
Change of E.P.G. Before administration ([5]; dogs, 20 mg/Kg orally once, baseline, one value per dog, 20 mg/kg): 5,300 E.P.G. and 2,600 E.P.G.
Change of E.P.G. 7th day ([5]; dogs, 20 mg/Kg orally once, one value per dog): 0 E.P.G.
inhibition in vivo at 30 mg/kg ([9]; Dirofilaria immitis, sc, 240 h, dog, 30 mg/Kg x 3, subcutaneous injection, read-out: Effect on adult filaria: Percent of worms killed): 58%
inhibition in vivo at 30 mg/kg ([9]; Dirofilaria immitis, sc, 240 h, dogs, administration of 30 mg/Kg repeated three times, given as about 50% or more, read-out: anthelmintic effect against adult filaria): ≥ 50%
Number of microfilaria/20 µl on 10th day after the last administration ([9]; dog, 30 mg/Kg x 3, subcutaneous injection, suspension in 1% Tween 80): 0 /20 µl
Effect on adult filaria: Number of worms killed/ Total parasite ([9]; dog, 30 mg/Kg x 3, subcutaneous injection, 30 mg/kg): 7/12 and 13/21
anthelmintic effect against microfilaria (mf) ([9]; dogs, administration of 30 mg/Kg repeated three times): marked anthelmintic effect
Condition of fluke body ([10]; rat, 50 mg/Kg x 5): dead
Presence or absence of fluke egg in fecal matter On 21st day after the last administration ([10]; rat, 50 mg/Kg x 5): -
anthelmintic effect ([10]; rats, five administrations in a dose of 50 mg/Kg each): marked antihelmintic effect
Change of E.P.G. 7th day ([12]; 20 mg/Kg orally once): 0 E.P.G.
Change of E.P.G. Before administration ([12]; 20 mg/Kg orally once, baseline): 3,400 E.P.G.
anthelmintic effect ([12]; one administration of 20 mg/Kg): marked anthelmintic effect

CC=CCON(CC=CC)C(C)=O [Compound C10]
inhibition in vivo at 30 mg/kg ([11]; chicken, 30 mg/Kg oral in gelatin capsule, chickens No.1-3): 80 to 90%
inhibition in vivo at 50 mg/kg ([11]; chicken, 50 mg/Kg oral in gelatin capsule, chickens No.1-3): 100%
inhibition in vivo at 25 ppm ([1]; feed or water, chicken, 25 ppm in feed): 80 to 90%
inhibition in vivo at 50 ppm ([1]; feed or water, chicken, 50 ppm in feed): 100%
Change of E.P.G. 7th day ([5]; dog, Strongyloides stercoralis, 30 mg/Kg oral in gelatin capsule, one administration): 0
Change of E.P.G. Before administration ([5]; dog, Strongyloides stercoralis, before 30 mg/Kg oral (baseline)): 2,300 and 3,100
anthelmintic effect ([5]; dogs, one administration of 30 mg/Kg): marked anthelmintic effect
anthelmintic effect [6]: marked anthelmintic effect
Change of E.P.G. 7th day ([12]; Trichostrongylus colubriformis, 20 mg/Kg oral in gelatin capsule, one administration): 0
Change of E.P.G. Before administration ([12]; Trichostrongylus colubriformis, before 20 mg/Kg oral (baseline)): 1,800

— EP0103895A2, “Novel hydroxylamine derivatives, production and use thereof” (MEIJI SEIKA KABUSHIKI KAISHA, priority 1982, dated 1984)
